Measurements reported in US6541488B1, “Compositions for treating arterial thrombosis and a factor Xa inhibitor” (Sanofi-Synthelabo, priority 1997, dated 2003).
Read-outs that look alike come from different tables or passages of the source.

Experiments:
arterial thrombosis = test: Arterial thrombosis induced by electrical stimulation of the left common carotid in rabbits, blood flow rate measured; assay type: in vivo; details: rabbit; for effect on reduction in carotid blood flow rate: 45 min observation
Description: New Zealand male rabbits weighing 2.7 to 3 kg, obtained from the Lago breeding unit (France) were used. They were housed under standard conditions.
The formation of the thrombus was induced by external electrical stimulation of the left common carotid according to the Hladovec I. et al. method (Experimental arterial thrombosis in rats with continuous registration, Throm. Diathes. Haemor. 1971; 26: 407-410). The rabbits were anaesthetized with pentobarbital at the dose of 30 mg/kg iv. A segment of the left carotid artery was exposed and insulated by a piece of insulating film. Electrodes were inserted under the artery. A partial stricture inducing a 20% reduction in flow rate was made in the artery. The latter was then stimulated with the aid of a 2.5 mA current delivered by a constant current stimulator for 3 minutes. The thrombotic occlusion was evaluated by continuous measurement of the flow rate of blood in the carotid by means of an NARCO electromagnetic flow meter. This measurement was made over an observation period of 45 minutes.
For the treatment, solutions of SR 90107/ORG 31540 and of SR 121787A were prepared immediately before use in a saline solution. The solutions of SR 90107/ORG 31540 were injected by the IV route 5 minutes before induction of thrombosis in a volume of 1 ml/kg. SR 121787A was dadministered by the oral route 2 hours earlier.
The results were calculated and expressed as % reduction in blood flow rate at various times relative to time 0. They are grouped together in FIG. 1.

activated factor X (Xa) = test: Neutralization of activated factor X (Xa) by antithrombin III; assay type: biochemical
thrombin = thrombin (Homo sapiens, UniProt P00734); test: Activity on thrombin; assay type: biochemical
human plasma = test: Activated partial thromboplastin time (APTT) test on human plasma
platelet aggregation = test: Platelet aggregation induced by ADP or collagen; assay type: cell-based
induced thromboses [1] = details: rats; i.v. and s.c. administration; cited from earlier work
induced thromboses [2] = details: rats; i.v. and s.c. administration; cited from earlier work; remark: listed apart in the source
induced thromboses [3] = details: rabbits; i.v. and s.c. administration; cited from earlier work
[4] = rats, cited from earlier work
[5] = Toxicity studies with repeated assays; details: any animal species; repeated assays over 4 weeks with up to 10 mg/kg subcutaneously

Compound | effect on course of the carotid output (arterial thrombosis; oral dose 10 mg/kg 2 hours before, sole active ingredient) | effect on drop of the carotid output (arterial thrombosis; oral dose 20 mg/kg 2 hours before, sole active ingredient) | effect on reduction in carotid blood flow rate (arterial thrombosis; 300 nmol/kg IV 5 minutes before induction of thrombosis) | effect on reduction in carotid blood flow rate (arterial thrombosis; 600 nmol/kg IV 5 minutes before induction of thrombosis) | catalysis of neutralization of factor Xa by antithrombin III (activated factor X (Xa)) | activity on thrombin (thrombin) | modification of activated partial thromboplastin time (APTT) (human plasma) | potentiation of platelet aggregation induced by ADP (platelet aggregation; ADP) | potentiation of platelet aggregation induced by collagen (platelet aggregation; collagen) | mutagenicity in the AMES test (AMES test) | mutagenicity in the DNA repair test (DNA repair test) | antithrombotic effects (induced thromboses [1]) | antithrombotic effects (induced thromboses [2]) | antithrombotic effects (induced thromboses [3]) | loss of blood ([4]; 21.7 mg/kg (high dose)) | increase of blood loss compared with standard heparin or LMWHs [4] | toxicological effect [5]
CCOC(=O)CCN(c1nc(-c2ccc(/C(N)=N/C(=O)OCC)cc2)cs1)C1CCN(CC(=O)OCC)CC1 [SR 121787A, ethyl N-(1-ethoxycarbonylmethylpiperidin-4-yl)-N-{4-[4-{(N-ethoxycarbonylimino)(amino)methyl}phenyl]thiazol-2-yl}-3-aminopropionate] | did not significantly modify | almost completely inhibited | – | – | – | – | – | – | – | – | – | – | – | – | – | – | –
methyl O-(2-deoxy-2-sulphoamino-6-O-sulfo-α-D-glucopyranosyl)-(1→)-O-(β-D-glucopyranosyluronic acid)-(1→4)-O-(2-deoxy-2-sulphoamino-3,6-di-O-sulpho-α-D-glucopyranosyl-(1→4)-O-(2-O-sulpho-Ε-L-idopyranosyl-uronic acid)-(1→4)-2-deoxy-2-sulphoamino-6-O-sulpho-α-D-glucopyranoside [SR 90107/ORG 31540] | – | – | no influence | reduced it slightly but not significantly | can be catalysed | completely devoid | hardly modifies | does not potentiate | does not potentiate | not mutagenic | not mutagenic | demonstrated | demonstrated | demonstrated | identical to that observed with 200 units anti-Xa/kg of heparin | only slightly increases blood loss | No toxicological effect
